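Method: 48-hour compound exposure of cells in 96-well plates, five concentrations, linear interpolation of endpoints. GI50 = concentration required for 50% inhibition of growth.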 Activity calls are given as the source filed them. Rule as the data show it: active = GI50 up to about 1.1 µM and inactive = higher.
Key:
Assay in all cases: DTP human tumour cell line panel, 48 h
786-0 = tested on: 786-0
A549 = tested on: A549
ACHN = tested on: ACHN
BT-549 = tested on: BT-549
CAKI-1 = tested on: CAKI-1
CCRF-CEM = tested on: CCRF-CEM
COLO 205 = tested on: COLO 205
DU-145 = tested on: DU-145
EKVX = tested on: EKVX
HCC 2998 = tested on: HCC 2998
HCT-116 = tested on: HCT-116
HCT-15 = tested on: HCT-15
HL-60 = tested on: HL-60
HOP-62 = tested on: HOP-62
HT-29 = tested on: HT-29
Hs-578T = tested on: Hs-578T
IGROV-1 = tested on: IGROV-1
K562 = tested on: K562
KM12 = tested on: KM12
M14 = tested on: M14
MCF7 = tested on: MCF7
MDA-MB-231 = tested on: MDA-MB-231
MDA-MB-435 = tested on: MDA-MB-435
MDA-N = tested on: MDA-N
MOLT-4 = tested on: MOLT-4
NCI-H226 = tested on: NCI-H226
NCI-H23 = tested on: NCI-H23
NCI-H460 = tested on: NCI-H460
NCI-H522 = tested on: NCI-H522
NCI/ADR-RES = tested on: NCI/ADR-RES
OVCAR-3 = tested on: OVCAR-3
OVCAR-4 = tested on: OVCAR-4
OVCAR-8 = tested on: OVCAR-8
PC-3 = tested on: PC-3
RPMI-8226 = tested on: RPMI-8226
RXF 393 = tested on: RXF 393
SF-268 = tested on: SF-268
SF-295 = tested on: SF-295
SF-539 = tested on: SF-539
SK-MEL-28 = tested on: SK-MEL-28
SK-MEL-5 = tested on: SK-MEL-5
SK-OV-3 = tested on: SK-OV-3
SN12C = tested on: SN12C
SNB-19 = tested on: SNB-19
SNB-75 = tested on: SNB-75
SR = tested on: SR
SW-620 = tested on: SW-620
T47D = tested on: T47D
TK-10 = tested on: TK-10
U-251 = tested on: U-251
UACC-257 = tested on: UACC-257
UACC-62 = tested on: UACC-62
UO-31 = tested on: UO-31

SMILES: COCCN1C(=O)C2c3[nH]c4ccccc4c3C3CCC(C(C)(C)C)CC3C2C1=O (stereo not drawn)
- GI50 (786-0): 17.2 µM (inactive)
- GI50 (A549): 19.1 µM (inactive)
- GI50 (ACHN): > 10 µM (inactive)
- GI50 (BT-549): 18.8 µM (inactive)
- GI50 (CAKI-1): 23.1 µM (inactive)
- GI50 (CCRF-CEM): 22.6 µM (inactive)
- GI50 (COLO 205): 18.2 µM (inactive)
- GI50 (DU-145): 19.1 µM (inactive)
- GI50 (EKVX): 17.9 µM (inactive)
- GI50 (HCC 2998): 19.3 µM (inactive)
- GI50 (HCT-116): 16.4 µM (inactive)
- GI50 (HCT-15): 16.9 µM
- GI50 (HL-60): 16 µM (inactive)
- GI50 (HOP-62): 18.6 µM (inactive)
- GI50 (HT-29): 13.2 µM (inactive)
- GI50 (Hs-578T): 17.2 µM (inactive)
- GI50 (IGROV-1): 23.2 µM (inactive)
- GI50 (K562): 18.9 µM (inactive)
- GI50 (KM12): 19.2 µM (inactive)
- GI50 (M14): 18.5 µM (inactive)
- GI50 (MCF7): 18.4 µM (inactive)
- GI50 (MDA-MB-231): 17.3 µM (inactive)
- GI50 (MDA-MB-435): 18.7 µM (inactive)
- GI50 (MDA-N): 14.5 µM (inactive)
- GI50 (MOLT-4): > 10 µM (inactive)
- GI50 (NCI-H226): 22.1 µM (inactive)
- GI50 (NCI-H23): 22.6 µM (inactive)
- GI50 (NCI-H460): 14.8 µM (inactive)
- GI50 (NCI-H522): 18 µM (inactive)
- GI50 (NCI/ADR-RES): 17.4 µM (inactive)
- GI50 (OVCAR-3): 17.5 µM (inactive)
- GI50 (OVCAR-4): 16.9 µM (inactive)
- GI50 (OVCAR-8): 20.7 µM (inactive)
- GI50 (PC-3): 13.4 µM (inactive)
- GI50 (RPMI-8226): 15.2 µM (inactive)
- GI50 (RXF 393): 20.4 µM (inactive)
- GI50 (SF-268): 19.2 µM (inactive)
- GI50 (SF-295): 18.6 µM (inactive)
- GI50 (SF-539): 19.1 µM (inactive)
- GI50 (SK-MEL-28): 17.5 µM (inactive)
- GI50 (SK-MEL-5): 17 µM (inactive)
- GI50 (SK-OV-3): 20.2 µM (inactive)
- GI50 (SN12C): 17.1 µM (inactive)
- GI50 (SNB-19): 19.1 µM (inactive)
- GI50 (SNB-75): 17.5 µM (inactive)
- GI50 (SR): 11.7 µM (inactive)
- GI50 (SW-620): 17.3 µM (inactive)
- GI50 (T47D): 20 µM (inactive)
- GI50 (TK-10): > 10 µM (inactive)
- GI50 (U-251): 15.5 µM (inactive)
- GI50 (UACC-257): 16.7 µM (inactive)
- GI50 (UACC-62): > 10 µM (inactive)
- GI50 (UO-31): 13.9 µM (inactive)

— ChEMBL document CHEMBL1201862, “PubChem BioAssay data set” (2004)
